Assay results as given in US20250332178A1, “METHODS OF TREATING MYCOBACTERIAL INFECTIONS USING TETRACYCLINE COMPOUNDS” (priority 2018, published 2025).
≈ marks a conversion by molar mass, not a printed value. Where two headings read alike, the source gives them in different places.

Columns and labels:
[1] = MIC by broth microdilution in CAMHB, clinical isolates; assay type: cell-based, Mycobacterium chelonae; settings: for MIC: read-out: MIC
[2] = test system: M. abscessus subsp. abscessus CIP 104536; assay: Time-kill kinetics assay; assay type: cell-based
Protocol: Briefly, M. abscessus cultures were exposed to antimicrobial drugs at 4-fold increasing concentrations for 7 days at 37° C. under shaking conditions at 96 rpm. […] The drug concentrations ranged from 0.063 to 256 mg/L for both compounds. […] At day 1, 3 and 7 during drug exposure, samples were collected, centrifuged at 14000 xg to avoid anti-NTM drug carry over, serially diluted (10-fold, 10^0-10^7) and subcultured onto solid medium. […] The lower limit of detection was 5 cfu/mL (log 0.7). All experiments were performed in duplicate. Time-kill curves, as well as concentration-effect curves were generated.

[3] = test system: Bacille Calmette Guerin (BCG); assay type: cell-based, Mycobacterium bovis
[4] = Intra-pulmonary steady-state concentrations (plasma, ELF, alveolar cells) after multiple IV doses in healthy adult subjects; assay type: in vivo, human; settings: human, in vivo
Protocol: The remaining 20 subjects received tigecycline as 1 intravenous dose of 100 mg administered as a 30 minute infusion at t=0, followed by 6 intravenous doses of 50 mg administered as 30 minute infusions at t=12, 24, 36, 48, 60, and 72 hours. A study completion visit was conducted on the day following the final test article dose. There was a final follow-up assessment 7 to 14 days following the subject's last dose of test article which may be completed by telephone contact or other interactive technology unless an examination was needed to evaluate adverse events or abnormalities noted at the study completion visit.
Plasma PK samples were collected pre-dose and at 0.5, 1, 1.5, 2, 3, 4, 6, 8, 12 and 24 hours post-dose on day 4. […] One BAL sample was collected from each subject on day 4. Subjects were randomized to one of the following collection times: 0.5, 1, 2, 4, 8, 12 or 24 hours post-dose.

[5] = in vivo; cited from earlier work
[6] = test system: M. abscessus subsp. abscessus CIP 104536; assay: MIC according to CLSI guidelines; settings: Mycobacteroides abscessus, CIP104536, read-out: Minimal Inhibitory Concentration (MIC)
Protocol: Vials with M. abscessus suspensions were stored at −80° C. Cultures on solid medium were grown on Mueller Hinton II agar (BD), supplemented with 10% OADC and 0.5% glycerol for 10 days at 37° C. with 5% CO2.

M. arupense = assay: MIC (CLSI broth dilution), slow-growing NTM isolates; assay type: cell-based; settings: isolate 11, Other
M. simiae = assay: as above; assay type: cell-based
M. abscessus = settings: strains of M. abscessus; Wallace et al.; cited from earlier work
[7] = Alveolar Macrophages (AM) concentration (mean ± SD)
[8] = Epithelial lining fluid (ELF) concentration (mean ± SD)
[9] = Plasma concentration (mean ± SD)
[10] = Ratio of Omadacycline Concentrations in Alveolar Cells to Plasma (Mean, SD)
[11] = Ratio of Omadacycline Concentrations in Epithelial Lining Fluid to Plasma (Mean, SD)

SMILES: CN(C)c1cc(CNCC(C)(C)C)c(O)c2c1C[C@H]1C[C@H]3C(N(C)C)C(O)=C(C(N)=O)C(=O)[C@@]3(O)C(O)=C1C2=O (stereo partly drawn) [Omadacycline, (4aS,5aR,12aS)-4,7-bis(dimethylamino)-3,10,12,12a-tetrahydroxy-9-((neopentylamino)methyl)-1,11-dioxo-1,4,4a,5,5a,6,11,12a-octahydrotetracene-2-carboxamide]
- MIC90 ([1]; 22 clinical isolates, read-out: MIC90): 0.25 µg/mL (≈ 0.449 µM)
- MIC ([1]; isolate No. 1, MC 7323): 0.125 µg/mL (≈ 0.225 µM)
- MIC ([1]; isolate No. 2, MC 7534): 0.03 µg/mL (≈ 0.0539 µM)
- MIC ([1]; isolate No. 3, MC 7368): 0.03 µg/mL (≈ 0.0539 µM)
- MIC ([1]; isolate No. 4, MC 7514): 0.06 µg/mL (≈ 0.108 µM)
- MIC ([1]; isolate No. 5, MC 7584): 0.06 µg/mL (≈ 0.108 µM)
- MIC ([1]; isolate No. 6, MC 7192): 0.015 µg/mL (≈ 0.0269 µM)
- MIC ([1]; isolate No. 7, MC 7466): 0.03 µg/mL (≈ 0.0539 µM)
- MIC ([1]; isolate No. 8, MC 7533): 0.25 µg/mL (≈ 0.449 µM)
- MIC ([1]; isolate No. 9, MC 7579): 0.125 µg/mL (≈ 0.225 µM)
- MIC ([1]; isolate No. 10, MC 7614): 0.125 µg/mL (≈ 0.225 µM)
- MIC ([1]; isolate No. 11, MC 7414): 0.125 µg/mL (≈ 0.225 µM)
- MIC ([1]; isolate No. 12, MC 7313): 0.125 µg/mL (≈ 0.225 µM)
- MIC ([1]; isolate No. 13, MC 7281): 0.25 µg/mL (≈ 0.449 µM)
- MIC ([1]; isolate No. 14, MC 7328): 0.015 µg/mL (≈ 0.0269 µM)
- MIC ([1]; isolate No. 15, MC 7294): 0.25 µg/mL (≈ 0.449 µM)
- MIC ([1]; isolate No. 16, MC 14-S-03): 0.06 µg/mL (≈ 0.108 µM)
- MIC ([1]; isolate No. 17, MC 14-S-04): 0.06 µg/mL (≈ 0.108 µM)
- MIC ([1]; isolate No. 18, MC 14-S-05): 0.125 µg/mL (≈ 0.225 µM)
- MIC ([1]; isolate No. 19, MC 14-S-06): 0.03 µg/mL (≈ 0.0539 µM)
- MIC ([1]; isolate No. 20, MC 14-S-07): 0.06 µg/mL (≈ 0.108 µM)
- MIC ([1]; isolate No. 21, MC 35757): 0.125 µg/mL (≈ 0.225 µM)
- MIC ([1]; isolate No. 22, MC 7302): 0.25 µg/mL (≈ 0.449 µM)
- concentration for 1 log mycobacterial killing ([2]; after 7 days of exposure): 4.0 mg/L
- concentration for 2 log mycobacterial killing ([2]; after 7 days of exposure): 4.8 mg/L
- concentration for stasis (concentration-effect curve) ([2]; after 7 days of exposure): 3.3 mg/L
- concentrations achieving elimination ([2]; time-kill, at day 3-7): no elimination was achieved
- concentration showing inhibition of mycobacterial growth ([2]; time-kill, up to 7 days exposure): 4 mg/L
- Results/Observations (growth) ([3]; disk: 15 μg of omadacycline): Markedly decreased growth around
- Free-drug AUC72-96, Plasma (Median) [4]: 9.61 mg·h/L
- AUC ([4]; AUCmean, Alveolar Cells (AC)): 302000 ng·h/mL
- AUC ([4]; AUCmean, Epithelial Lining Fluid (ELF)): 17200 ng·h/mL
- AUC ([4]; AUCmean, Plasma): 11700 ng·h/mL
- AUC ([4]; AUCmedian, Alveolar Cells (AC)): 292000 ng·h/mL
- AUC ([4]; AUCmedian, Epithelial Lining Fluid (ELF)): 16700 ng·h/mL
- AUC ([4]; AUCmedian, Plasma): 11800 ng·h/mL
- concentration at 0.5 h [4, 7]: 14300 ± 9300 ng/mL
- concentration at 1 h [4, 7]: 12800 ± 8480 ng/mL
- concentration at 2 h [4, 7]: 10800 ± 7590 ng/mL
- concentration at 4 h [4, 7]: 18000 ± 7170 ng/mL
- concentration at 8 h [4, 7]: 12300 ± 4700 ng/mL
- concentration at 12 h [4, 7]: 12300 ± 4610 ng/mL
- concentration at 24 h [4, 7]: 10400 ± 4040 ng/mL
- concentration at 0.5 h [4, 8]: 1730 ± 1010 ng/mL
- concentration at 1 h [4, 8]: 2250 ± 720 ng/mL
- concentration at 2 h [4, 8]: 1510 ± 940 ng/mL
- concentration at 4 h [4, 8]: 950 ± 330 ng/mL
- concentration at 8 h [4, 8]: 580 ± 190 ng/mL
- concentration at 12 h [4, 8]: 610 ± 290 ng/mL
- concentration at 24 h [4, 8]: 410 ± 130 ng/mL
- Kp ([4]; Penetration Ratio: total-drug ELF AUC72-96 to free-drug plasma AUC72-96 (Median)): 1.93
- Kp ([4]; Penetration ratio AC:Plasma based on AUCmean): 25.8
- Kp ([4]; Penetration ratio AC:Plasma based on AUCmedian): 24.8
- Kp ([4]; Penetration ratio ELF:Plasma based on AUCmean): 1.47
- Kp ([4]; Penetration ratio ELF:Plasma based on AUCmedian): 1.42
- concentration at 0.5 h [4, 9]: 1800 ng/mL
- concentration at 1 h [4, 9]: 890 ng/mL
- concentration at 2 h [4, 9]: 930 ng/mL
- concentration at 4 h [4, 9]: 590 ng/mL
- concentration at 8 h [4, 9]: 560 ng/mL
- concentration at 12 h [4, 9]: 420 ng/mL
- concentration at 24 h [4, 9]: 270 ng/mL
- Kp at 0.5 h [4, 10]: 8.12 ± 5.95
- Kp at 1 h [4, 10]: 13.8 ± 7.38
- Kp at 2 h [4, 10]: 12.3 ± 6.57
- Kp at 4 h [4, 10]: 34.7 ± 15.1
- Kp at 8 h [4, 10]: 23.1 ± 11.2
- Kp at 12 h [4, 10]: 29 ± 8.78
- Kp at 24 h [4, 10]: 40.3 ± 10.3
- Kp at 0.5 h [4, 11]: 0.95 ± 0.56
- Kp at 1 h [4, 11]: 2.72 ± 1.26
- Kp at 2 h [4, 11]: 1.5 ± 0.61
- Kp at 4 h [4, 11]: 1.79 ± 0.49
- Kp at 8 h [4, 11]: 1.07 ± 0.45
- Kp at 12 h [4, 11]: 1.44 ± 0.57
- Kp at 24 h [4, 11]: 1.65 ± 0.86
- AUC ([4]; Total-drug AUC72-96, ELF (Median)): 18500 ng·h/mL
- Kp ([4]; concentration in epithelial lining fluid relative to plasma): > 1.4
- Cmax ([4]; iv, 100 mg): 2260 ± 760 ng/mL
- Vd ([4]; iv, 100 mg): 165 ± 58 L
- Kp ([4]; mean concentration in alveolar cells relative to plasma): ~25
- Kp ([4]; mean concentration in epithelial lining fluid higher than in plasma): ≥ 0.4
- 24-hour area under the curve compared to tigecycline [5]: approximately three-fold higher
- MIC [6]: 4 µg/mL (≈ 7.19 µM)

SMILES: C[C@H]1c2cccc(O)c2C(=O)C2=C(O)[C@]3(O)C(=O)C(C(N)=O)=C(O)[C@@H](N(C)C)[C@@H]3[C@@H](O)[C@@H]21 [Doxycycline, doxycycline]
- MIC (M. arupense): 16 µg/mL (≈ 36 µM)
- MIC (M. simiae; isolate 13, Other): >16 µg/mL
- MIC (M. simiae; isolate 14, Other): >16 µg/mL
- MIC (M. simiae; isolate 15, Other): >16 µg/mL
- in vitro activity (in words) (M. abscessus): very low activity

SMILES: CC[C@H]1OC(=O)[C@H](C)[C@@H](O[C@H]2C[C@@](C)(OC)[C@@H](O)[C@H](C)O2)[C@H](C)[C@@H](O[C@@H]2O[C@H](C)C[C@H](N(C)C)[C@H]2O)[C@](C)(OC)C[C@@H](C)C(=O)[C@H](C)[C@@H](O)[C@]1(C)O [clarithromycin]
- clear zone ([3]; disk: 15 μg of clarithromycin): 45 mm clear zone
